The values below are quoted from earlier work in patent US20240368063A1, “PREPARATION METHOD, IN[…], AND SYNTHESIS METHOD FOR A CLASS OF ANTHRACENE-DERIVED TOXINS IN ORGANIC CHEMISTRY” (WUYAN PHARMACEUTICAL TECHNOLOGY (SHANGHAI) CO., LTD, priority 2022, published 2024).

One data set concerns topoisomerase II. Conditions: at a concentration of 100 μM.
The test system of the next data set is human tumor cell lines. The following applies: various tumor cell lines, including cells resistant to anthracyclines.

Turning to `COc1cccc2c1C(=O)c1c(O)c3c(c(O)c1C2=O)C[C@@](O)(C(=O)CO)C[C@@H]3O[C@H]1C[C@H]2[C@H](O[C@@H]3[C@@H](OC)OCCN32)[C@H](C)O1` [PNU-159682], the “inhibition of the activity of topoisomerase II” value with topoisomerase II is reported as “weakly inhibits”. Besides, the “cytotoxicity compared to anthracyclines” value in the data set with human tumor cell lines was “three orders of magnitude higher cytotoxicity”.
